Measured values from publication PMC9504587, “Cytotoxic Drimane-Type Sesquiterpenes from Co-Culture of the Marine-Derived Fungi Aspergillus carneus KMM 4638 and Beauveria felina (=Isaria felina) KMM 4639” (Marine Drugs, 2022).
In brackets after ≈: the same amount, converted by molar mass. Where two headings read alike, the source gives them in different places.

Experiments:
[1] = test system: normal rat cardiomyocyte H9c2 cell line; test: MTT cytotoxicity assay, H9c2 cells; type: cell-based; settings: 24 h incubation, mean ± SEM
Procedure: (§1) PC-3, MCF-7, C6, and H9c2 cells were cultured in DMEM medium (Biolot, St. Petersburg, Russia) containing 10% fetal bovine serum (Biolot, St. Petersburg, Russia) and 1% penicillin/streptomycin (Biolot, St. Petersburg, Russia) at 37 °C in a humidified atmosphere with 5% (v/v) CO2. The Raji cells were cultured in RPMI-1640 medium (Biolot, St. Petersburg, Russia) containing 10% fetal bovine serum (Biolot, St. Petersburg, Russia) and 1% penicillin/streptomycin (Biolot, St. Petersburg, Russia) under the same conditions.
(§2) Initially, cells were incubated in culture flasks until subconfluent (~80%). For testing, the cells were seeded at concentrations of 5 × 10^3 cells/well (PC-3, MCF-7, Raji, and C6 cells) or 3 × 10^3 cells/well (H9c2 cells), and experiments were started after 24 h.
(§3) The in vitro cytotoxicity of individual substances was determined by the MTT method (3-(4,5-dimethylthiazol-2-yl)-2,5-diphenyltetrazolium bromide), according to the manufacturer’s instructions (Sigma-Aldrich, St. Louis, MO, USA).
(§4) Investigated compounds were dissolved in DMSO at a concentration of 10 mM.
(§5) The cells were treated with the investigated compounds for 24 h or 48 h, and MTT reagent was added to each well of the plate. The vehicle with DMSO at a concentration of 1% was used as a control. The absorbance of formed formazan was measured at λ = 570 nm using a Multiskan FC microplate photometer (Thermo Scientific, Waltham, MA, USA) and expressed in optical units (o.u.). The results are presented as % of viable cells relative to vehicle, and 50% inhibition concentration of cell viability (IC50) was calculated.

rat glioblastoma C6 = test: MTT cytotoxicity assay, C6 cells; type: cell-based; settings: 24 h incubation, mean ± SEM
Procedure: as §1, §2, §3, §4, §5

[2] = test system: human prostate cancer PC-3; test: MTT cytotoxicity assay, PC-3 cells; type: cell-based; settings: 24 h incubation, mean ± SEM
Procedure: as §1, §2, §3, §4, §5

human lymphoma Raji = test: MTT cytotoxicity assay, Raji cells; type: cell-based; settings: 24 h incubation, mean ± SEM
Procedure: as §1, §2, §3, §4, §5

[3] = test system: human breast cancer MCF-7; test: MTT cytotoxicity assay, MCF-7 cells; type: cell-based
Procedure: as §1, §2, §3, §4, §5

[4] = test system: human hepatocarcinoma HepG2; design: method as in doi:10.25135/rnp.294.2109.2194; settings: cited from earlier work
[5] = test system: gastric cancer MKN-45 cells; design: method as in doi:10.25135/rnp.294.2109.2194; settings: cited from earlier work
MCF-7 cells [6] = test: Apoptosis profile by flow cytometry (Muse annexin V and dead cell kit); type: cell-based, human; settings: 10 µM, 48 h
Procedure: After incubation, culture media were collected; then, cells were washed twice with cold PBS and incubated with trypsin-EDTA solution for 1 min. The cell suspension was washed twice by centrifugated at 250× g for 4 min with cold PBS and used for apoptosis detection by a Muse® annexin V and dead cell kit in accordance with manufacturer’s instructions (Luminex, Austin, TX, USA). Fluorescence was measured with a Muse® cell analyzer (Luminex, Austin, TX, USA), and data were processed by Muse 1.5 analysis software (Luminex, Austin, TX, USA). The proportion of apoptotic cells was expressed as a percentage.

MCF-7 cells [7] = test: Total caspase activity by flow cytometry (Muse multicaspase kit); type: cell-based, human; settings: 10 µM, 48 h; control 4.7%
Procedure: The influence of the compounds on the percentage of live MCF-7 cells (caspase−/7-AAD−), live MCF-7 cells with caspase activity (caspase+/7-AAD−), dead MCF-7 cells with caspase activity […] MCF-7 cells (caspase−/7-AAD+) was measured by a Muse® multicaspase kit (Luminex, Austin, TX, USA). The kit utilizes a VAD-peptide derivatized with a fluorescent group called fluorescent-labeled inhibitor of caspases (FLICA). The peptide binds to activated caspases, resulting in a fluorescent signal proportional to the number of active caspases in the cell. Fluorescent dye 7-AAD was used as a dead cell marker in this assay.
After incubation, culture media were collected, and cells were washed twice with cold PBS and incubated in trypsin-EDTA solution for 1 min. The cell suspension was washed twice by centrifugation at 250× g for 4 min with cold PBS and then used for caspase activity detection by a Muse® multicaspase kit (caspases 1, 3, 4, 5, 6, 7, 8, and 9) in accordance with manufacturer’s instructions (Luminex, Austin, TX, USA). Fluorescence was measured with a Muse® cell analyzer (Luminex, Austin, TX, USA), and data were processed by Muse 1.5 analysis software (Luminex, Austin, TX, USA).

MCF-7 cells [8] = test: Cell cycle analysis by flow cytometry (propidium iodide); type: cell-based, human; settings: 10 µM, 48 h
Procedure: After incubation, cells were trypsinized, harvested, washed with PBS, and fixed with ice-cold 70% ethanol in a dropwise manner prior to storage at −20 °C overnight. The cells were then washed with PBS, incubated with 200 μg/mL RNAse (PanReac, AppliChem, Darmstadt, Germany) and 20 μg/mL of propidium iodide (Sigma-Aldrich, St. Louis, MO, USA) for 30 min at 37 °C, and the DNA content was analyzed with a Muse® cell analyzer (Luminex, Austin, TX, USA). The data were processed by Muse 1.5 analysis software (Luminex, Austin, TX, USA). The proportion of cells in each phase of the cell cycle was expressed as a percentage.

[9] = test system: H9c2, C6, PC-3, Raji and MCF-7 cells; test: MTT cytotoxicity, summary statements over several cell lines; type: cell-based; settings: 24 h
Procedure: as §3, §4, §5

PTP1B = molecular target: PTP1B; design: method as in earlier work; settings: cell-free assay; cited from earlier work
SHP2 = molecular target: SHP2; design: method as in earlier work; settings: cell-free assay; cited from earlier work
[10] = Homo sapiens, MCF7, 24 h, 24 h incubation, mean ± SEM, read-out: IC50, MCF-7
[11] = 24 h incubation, mean ± SEM, read-out: IC50, MCF-7

Structure (SMILES) | IC50 ([1]; Rattus norvegicus, H9c2, 24 h) | IC50 (rat glioblastoma C6; Rattus norvegicus, C6, 24 h) | IC50 ([2]; Homo sapiens, PC-3, 24 h) | IC50 (human lymphoma Raji; Homo sapiens, Raji, 24 h) | IC50 [3, 10] | IC50 [1] | IC50 (rat glioblastoma C6) | IC50 [2] | IC50 (human lymphoma Raji) | IC50 [3, 11] | other results
CC(O)C(O)C=CC=CC(=O)OC1C=C(CO)C(O)(CO)C2(C)CCCC(C)(C)C12 (stereo not shown) [Compound 1, asperflavinoid A] | 84.2 ± 3.3 µM | 102 ± 1.7 µM | 85.3 ± 2.9 µM | > 100 µM | 59 ± 4.4 µM | – | – | – | – | – | IC50 [4]: 84.4 µM; IC50 [5]: 63.2 µM
CC(O)C(O)C=CC=CC(=O)OC1C=C(CO)C(O)(CO)C2(C)CCCC(C)(C)C12 (stereo not shown) [Compound 2, asperflavinoid B] | – | – | – | – | – | 74.4 ± 4.4 µM | > 100 µM | 75.2 ± 3.8 µM | > 100 µM | 54.1 ± 2.4 µM | –
CC1(C)CCC[C@@]2(C)[C@H]1[C@H](OC(=O)/C=C/C=C/C=O)C=C1CO[C@@H](O)[C@@]12O [Compound 3, asperflavinoid C] | 55.6 ± 2.6 µM | 56 ± 1.2 µM | 50.8 ± 1.6 µM | 82.3 ± 2.9 µM | 33.8 ± 2.2 µM | – | – | – | – | – | decrease in MCF-7 cell viability ([3]; 10 µM, 48 h): ~50%; IC50 ([3]; Homo sapiens, MCF7, 48 h, 48 h incubation, concentrations up to 10 µM, read-out: IC50, MCF-7 cell viability, prolonged incubation): 10 µM; amount of apoptotic cells (early and late) (MCF-7 cells [6]; control 1.7%): 15.0%; amount of living cells (MCF-7 cells [6]; control 98.6%): 84.9%; percentage of cells exhibiting caspase activity (living and 7-AAD-labeled) (MCF-7 cells [7]): 12.3%; subG0 cells (MCF-7 cells [8]; control 5.4%): 34.6%; decrease in the percentage of cells in the S phase (MCF-7 cells [8]; relative to control): 54.5%; increase of the percentage of cells in the G2/M phase (MCF-7 cells [8]; relative to control): 25.2%; reduction of the percentage of cells in the G0/G1 phase (MCF-7 cells [8]; relative to control): 30.9%; increase of the subG0 population of cells (MCF-7 cells [8]; versus control): 6.4 times; IC50 ([9]; range over both compounds and three cell lines): 54.3 to 88.1 µM; IC50, PTP1B enzyme activity (PTP1B): 2.8 µg/mL (≈ 7.44 µM); IC50, SHP2 enzyme activity (SHP2): 3.0 µg/mL (≈ 7.97 µM)
CC(O)C(O)C=CC=CC(=O)OC1C=C2COC(O)C2(O)C2(C)CCCC(C)(C)C12 (stereo not shown) [Compound 4, asperflavinoid D] | 59.3 ± 1.7 µM | > 100 µM | 57.4 ± 2.4 µM | 85.7 ± 6 µM | 75 ± 6.2 µM | – | – | – | – | – | –
CC(O)C(O)C=CC=CC(=O)OC1C=C2COC(O)C2(O)C2(C)CCCC(C)(C)C12 (stereo not shown) [Compound 5, asperflavinoid E] | – | – | – | – | – | 63.9 ± 1.6 µM | > 100 µM | 59.1 ± 0.8 µM | 94.4 ± 2.3 µM | 80.6 ± 3.5 µM | –
CC1(C)CCC[C@@]2(C)[C@H]1[C@H](O)C=C1COC(=O)[C@@]12O [Compound 8, strobilactone A] | > 100 µM | > 100 µM | > 100 µM | > 100 µM | > 100 µM | – | – | – | – | – | influence on the viability of the tested cells ([9]; up to a concentration of 100 µM): did not influence the viability
